One series concerns the target recombinant human CHIT1 (Homo sapiens (Human), UniProt Q13231). Kind of series: Human CHIT1 activity assay. The following applies: recombinant human CHIT1, citrate buffer pH 5.2, 37° C., 60 minutes; read-out: hCHIT1, IC50. The format is biochemical. The method, then:
(§1) The assay was run in the 96-well plate format, each reaction in the total volume of 100 μL. 4-methylumbelliferyl β-D-N,N′,N″-triacetylchitotriose was used as a substrate for the enzyme. Upon hydrolysis by CHIT1, the substrate releases 4-methylumbelliferyl (4MU) that, when ionized in basic pH, emits fluorescence at 460 nm. Briefly, 40 μL of a substrate was added to each well, followed by 10 μL of compound dilution and 50 μL of CHIT1 recombinant enzyme solution. The reaction was carried out in citrate buffer, pH 5.2, in the dark, at 37° C. for 60 minutes with shaking. […] The IC50 values were calculated using GraphPad Prism.

A further series has as its target recombinant human AMCase (Homo sapiens (Human), UniProt Q9BZP6). As to the kind of experiment: Human AMCase activity assay. It is filed as biochemical. The following applies: citrate buffer pH 5.2, 37° C., 60 minutes, read-out: hAMCase, IC50. The method, then: as §1, with “4-Methylumbelliferyl B-D-N,N′-diacetylchitobioside hydrate” for “4-methylumbelliferyl β-D-N,N′,N″-triacetylchitotriose”, “AMCase,” for “CHIT1,”, “hAMCase” for “CHIT1”

In a further series the target is hERG channel (Homo sapiens (Human), UniProt Q12809). Kind of series: Human ERG channel binding assay (fluorescence polarization). The settings on record: tracer displacement, 4 h at room temperature. The method, then:
Human ERG Channel Binding Assay
Fluorescence polarization assay based on the principle of fluorescence polarization where a red-shifted fluorescent tracer is displaced from the hERG channel by compounds that bind to the channel was used to establish the binding of the compounds to hERG channel. […] Briefly, the compounds in serial dilutions were incubated with a membrane fraction containing hERG channel protein and a high-affinity red fluorescent hERG channel ligand in black 384-well plate. […] The IC50 values were calculated using GraphPad Prism.
In general terms: In fluorescence polarisation assays a small probe gives low polarisation when free and higher when bound to something large.

pIC50: −log10 of the molar value. Structures can show the parent of a compound that is named as a salt.

Chain of hERG channel (Q12809 whole entry): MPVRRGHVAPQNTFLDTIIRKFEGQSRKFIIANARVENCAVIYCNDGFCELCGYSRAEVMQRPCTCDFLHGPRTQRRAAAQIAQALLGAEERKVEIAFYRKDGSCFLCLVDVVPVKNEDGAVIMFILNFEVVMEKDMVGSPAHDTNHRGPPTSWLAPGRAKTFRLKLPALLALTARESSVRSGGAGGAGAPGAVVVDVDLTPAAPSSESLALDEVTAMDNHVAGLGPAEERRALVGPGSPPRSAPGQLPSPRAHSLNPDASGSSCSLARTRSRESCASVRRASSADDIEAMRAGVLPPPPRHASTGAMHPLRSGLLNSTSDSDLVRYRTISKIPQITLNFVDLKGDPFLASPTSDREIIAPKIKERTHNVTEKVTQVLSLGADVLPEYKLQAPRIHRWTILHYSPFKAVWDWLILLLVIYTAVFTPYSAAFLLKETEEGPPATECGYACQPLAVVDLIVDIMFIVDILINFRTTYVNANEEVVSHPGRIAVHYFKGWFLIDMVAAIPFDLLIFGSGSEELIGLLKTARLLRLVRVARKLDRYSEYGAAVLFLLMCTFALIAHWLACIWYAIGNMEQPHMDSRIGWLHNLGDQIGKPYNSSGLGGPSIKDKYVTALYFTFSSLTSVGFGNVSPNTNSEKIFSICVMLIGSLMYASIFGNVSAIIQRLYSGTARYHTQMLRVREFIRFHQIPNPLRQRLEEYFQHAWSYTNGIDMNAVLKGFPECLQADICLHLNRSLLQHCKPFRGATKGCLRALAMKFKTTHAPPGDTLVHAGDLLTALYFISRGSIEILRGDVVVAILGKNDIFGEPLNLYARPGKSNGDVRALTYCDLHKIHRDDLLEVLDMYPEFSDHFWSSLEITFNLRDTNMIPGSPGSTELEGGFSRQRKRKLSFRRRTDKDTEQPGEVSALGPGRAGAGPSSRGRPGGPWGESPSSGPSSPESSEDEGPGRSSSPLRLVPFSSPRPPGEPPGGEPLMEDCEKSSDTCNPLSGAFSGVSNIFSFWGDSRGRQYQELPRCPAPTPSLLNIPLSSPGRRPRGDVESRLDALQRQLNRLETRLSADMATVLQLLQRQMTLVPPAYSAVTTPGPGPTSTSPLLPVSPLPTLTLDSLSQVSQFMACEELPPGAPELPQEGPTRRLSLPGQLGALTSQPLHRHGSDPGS
Chain of recombinant human AMCase (Q9BZP6 22-476): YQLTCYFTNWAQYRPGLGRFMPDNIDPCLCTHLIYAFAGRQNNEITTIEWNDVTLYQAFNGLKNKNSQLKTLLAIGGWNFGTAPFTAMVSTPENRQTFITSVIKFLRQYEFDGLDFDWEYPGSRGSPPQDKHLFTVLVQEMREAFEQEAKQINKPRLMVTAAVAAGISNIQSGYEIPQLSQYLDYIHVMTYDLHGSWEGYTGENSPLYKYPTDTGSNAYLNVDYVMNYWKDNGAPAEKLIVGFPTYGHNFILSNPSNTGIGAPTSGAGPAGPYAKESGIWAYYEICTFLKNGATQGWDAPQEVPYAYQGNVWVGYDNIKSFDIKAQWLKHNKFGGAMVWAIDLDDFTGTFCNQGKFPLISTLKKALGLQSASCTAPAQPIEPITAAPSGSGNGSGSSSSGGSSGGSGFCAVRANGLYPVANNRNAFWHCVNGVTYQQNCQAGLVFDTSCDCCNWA
Chain of recombinant human CHIT1 (Q13231 22-466): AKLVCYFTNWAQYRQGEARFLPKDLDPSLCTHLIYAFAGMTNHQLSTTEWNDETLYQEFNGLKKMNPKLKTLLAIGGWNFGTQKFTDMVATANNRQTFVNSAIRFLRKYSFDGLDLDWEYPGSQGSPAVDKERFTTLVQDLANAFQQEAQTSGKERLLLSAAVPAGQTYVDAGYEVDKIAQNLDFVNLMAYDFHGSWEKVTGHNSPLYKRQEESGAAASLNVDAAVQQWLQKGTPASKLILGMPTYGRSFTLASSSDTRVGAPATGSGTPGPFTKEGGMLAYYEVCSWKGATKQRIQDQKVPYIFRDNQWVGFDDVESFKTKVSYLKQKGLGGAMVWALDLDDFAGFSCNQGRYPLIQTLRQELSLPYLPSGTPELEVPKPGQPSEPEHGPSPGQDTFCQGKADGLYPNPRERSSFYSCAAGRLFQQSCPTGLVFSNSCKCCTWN

Usually pIC50 stands for the negative decadic logarithm of the IC50, by convention in mol/L. Consider `CC(F)[C@H]1CN(C2CCN(c3nnc(N)[nH]3)CC2)[C@@H](Cc2ccc(Cl)cc2)CO1` (relative stereo) [Example 20, 5-(4-((2R,5S)-5-(4-chlorobenzyl)-2-(1-fluoroethyl)morpholino)piperidin-1-yl)-4H-1,2,4-triazol-3-amine 2,2,2-trifluoroacetate], for which the pIC50 on recombinant human CHIT1 was > 7.00; on recombinant human AMCase, > 7.00; on hERG channel (Table 1) it was < 4.00.
Take `C[C@@H]([C@H]1CN(C2CCN(c3nnc(N)[nH]3)CC2)[C@@H](Cc2ccc(Cl)cc2)CO1)n1cccn1` [Example 18, 5-(4-((2R,5S)-2-((S)-1-(1H-pyrazol-1-yl)ethyl)-5-(4-chlorobenzyl)morpholino)-piperidin-1-yl)-4H-1,2,4-triazol-3-amine 2,2,2-trifluoroacetate]: the pIC50 at recombinant human CHIT1 and on recombinant human AMCase was > 7.00 each time.
`C[C@H]([C@H]1CN(C2CCN(c3nnc(N)[nH]3)CC2)[C@@H](Cc2ccc(Cl)cc2)CO1)n1cccn1` [Example 19, 5-(4-((2R,5S)-2-((R)-1-(1H-pyrazol-1-yl)ethyl)-5-(4-chlorobenzyl)morpholino)-piperidin-1-yl)-4H-1,2,4-triazol-3-amine 2,2,2-trifluoroacetate]: the negative-log IC50 (pIC50) on recombinant human CHIT1 and at recombinant human AMCase was > 7.00 in each case.
On to `Nc1nnc(N2CCC(N3C[C@H](CN4CCCCC4=O)OC[C@@H]3Cc3ccc(Cl)cc3)CC2)[nH]1` [Example 35, 1-(((2R,5S)-4-(1-(5-amino-4H-1,2,4-triazol-3-yl)piperidin-4-yl)-5-(4-chlorobenzyl)-morpholin-2-yl)methyl)piperidin-2-one 2,2,2-trifluoroacetate], for which the pIC50 on recombinant human CHIT1 and on recombinant human AMCase was > 7.00 in each case.
Regarding `Nc1nnc(N2CCC(N3C[C@H](CN4CCC(F)(F)CC4)OC[C@@H]3Cc3ccc(Cl)cc3)CC2)[nH]1` [Example 38, 5-(4-((2S,5S)-5-(4-chlorobenzyl)-2-((4,4-difluoropiperidin-1-yl)methyl)-morpholino)piperidin-1-yl)-4H-1,2,4-triazol-3-amine 2,2,2-trifluoroacetate], the pIC50 at recombinant human CHIT1 and on recombinant human AMCase was > 7.00 throughout.
With `Nc1nnc(N2CCC(N3C[C@H](COC(F)F)OC[C@@H]3Cc3ccc(Cl)cc3)CC2)[nH]1` [Example 40, 5-(4-((2R,5S)-5-(4-chlorobenzyl)-2-((difluoromethoxy)methyl)morpholino)-piperidin-1-yl)-4H-1,2,4-triazol-3-amine 2,2,2-trifluoroacetate], the pIC50 at recombinant human CHIT1 and on recombinant human AMCase was > 7.00 throughout.
Regarding `CC(F)(F)[C@H]1CN(C2CCN(c3nnc(N)[nH]3)CC2)[C@@H](Cc2ccc(Cl)cc2)CO1` [Example 42, 5-(4-((2R,5S)-5-(4-chlorobenzyl)-2-(1,1-difluoroethyl)morpholino)piperidin-1-yl)-4H-1,2,4-triazol-3-amine dihydrochloride], the negative-log IC50 (pIC50) on recombinant human CHIT1 and at recombinant human AMCase was > 7.00 in each case.
Take `Nc1nnc(N2CCC(N3C[C@H](COCC(F)F)OC[C@@H]3Cc3ccc(Cl)cc3)CC2)[nH]1` [Example 43, 5-(4-((2R,5S)-5-(4-chlorobenzyl)-2-((2,2-difluoroethoxy)methyl)morpholino)-piperidin-1-yl)-4H-1,2,4-triazol-3-amine 2,2,2-trifluoroacetate]: the pIC50 at recombinant human CHIT1 and at recombinant human AMCase was > 7.00 each time.
Turning to `Nc1nnc(N2CCC(N3CC(F)(F)C[C@@H]3Cc3ccc(Cl)cc3)CC2)[nH]1` [Example 56, (S)-5-(4-(2-(4-chlorobenzyl)-4,4-difluoropyrrolidin-1-yl)piperidin-1-yl)-4H-1,2,4-triazol-3-amine dihydrochloride], the pIC50 at recombinant human CHIT1 is > 7.00.
In the case of `CC1(O)CCN(C2CCN(c3nnc(N)[nH]3)CC2)[C@@H](Cc2ccc(Cl)cc2)C1` (stereo partly drawn) [Example 59, (2S)-1′-(5-amino-4H-1,2,4-triazol-3-yl)-2-(4-chlorobenzyl)-4-methyl-[1,4′-bipiperidin]-4-ol 2,2,2-trifluoroacetate], the negative logarithm of the IC50 (pIC50) was 5.00 to 6.00 on recombinant human CHIT1 and 4.00 to 4.60 at hERG channel (Table 1).
For the compound `Nc1nnc(N2CCC(N3C[C@H](O)CC[C@@H]3Cc3ccc(Cl)cc3)CC2)[nH]1` [Example 70, (3R,6R)-1′-(5-amino-4H-1,2,4-triazol-3-yl)-6-(4-chlorobenzyl)-[1,4′-bipiperidin]-3-ol 2,2,2-trifluoroacetate], the pIC50 on recombinant human CHIT1 and at recombinant human AMCase was > 7.00 throughout.
For `CO[C@@H]1CC[C@H](Cc2ccc(Cl)cc2)N(C2CCN(c3nnc(N)[nH]3)CC2)C1` [Example 71, 5-((2R,5R)-2-(4-chlorobenzyl)-5-methoxy-[1,4′-bipiperidin]-1′-yl)-4H-1,2,4-triazol-3-amine 2,2,2-trifluoroacetate], the pIC50 was 6.00 to 7.00 at recombinant human CHIT1 and 4.00 to 4.60 on hERG channel (Table 1).
For the compound `Nc1nnc(N2CCC(N3CC4CC4C[C@@H]3Cc3ccc(Cl)cc3)CC2)[nH]1` (stereo partly drawn) [Example 72, 5-(4-((4R)-4-(4-chlorobenzyl)-3-azabicyclo[4.1.0]heptan-3-yl)piperidin-1-yl)-4H-1,2,4-triazol-3-amine 2,2,2-trifluoroacetate], the values for the negative logarithm of the IC50 (pIC50) at recombinant human CHIT1 and at recombinant human AMCase were 6.00 to 7.00 and > 7.00, respectively.
Turning to `Nc1nnc(N2CCC(N3Cc4cncn4C[C@@H]3Cc3ccc(C(F)(F)F)cc3)CC2)[nH]1` [Example 77, (S)-5-(4-(6-(4-(trifluoromethyl)benzyl)-5,6-dihydroimidazo[1,5-a]pyrazin-7(8H)-yl)piperidin-1-yl)-4H-1,2,4-triazol-3-amine 2,2,2-trifluoroacetate], at recombinant human CHIT1, the pIC50 is 5.00 to 6.00.
For the compound `Nc1nnc(N2CCC(N3CCOC[C@@H]3Cc3ccc(Cl)cc3)CC2)[nH]1` [Example C1, reference compound], the pIC50 on hERG channel (Table 2, comparative examples) was 4.60 to 5.00.
On the same count and under the same terms, to `CC(C)C[C@H]1CN(C2CCN(c3nnc(N)[nH]3)CC2)[C@@H](Cc2ccc(Cl)cc2)CO1` [Example C2, reference compound] belongs 5.00 to 6.00; to `COC(C)(C)[C@H]1CN(C2CCN(c3nnc(N)[nH]3)CC2)[C@@H](Cc2ccc(Cl)cc2)CO1` [Example C3, reference compound], 4.60 to 5.00.
Regarding `Nc1nnc(N2CCC(N3CCCC[C@@H]3Cc3ccc(Cl)cc3)CC2)[nH]1` [Example C4, reference compound], the pIC50 on hERG channel (Table 2, comparative examples) was 5.00 to 6.00.
On the same count and under the same terms, to `CO[C@H]1CN(C2CCN(c3nnc(N)[nH]3)CC2)[C@H]1Cc1ccc(Cl)cc1` [Example C6, reference compound] belongs > 6.00.
Still for that read-out and setting: next, `Nc1nnc(N2CCC(N3CCC[C@@H]3Cc3ccc(Cl)cc3)CC2)[nH]1` [Example C7, reference compound]: 5.00 to 6.00.
On the same count and under the same terms, to `C[C@H]1CN(C2CCN(c3nnc(N)[nH]3)CC2)[C@@H](Cc2ccc(Cl)cc2)CN1C` [Example C8, reference compound] belongs 5.00 to 6.00.
Compound `CC(C)CN1CCN(C2CCN(c3nnc(N)[nH]3)CC2)[C@@H](Cc2ccc(Cl)cc2)C1` [Example C9, reference compound] showed a negative logarithm of the IC50 (pIC50) at hERG channel (Table 2, comparative examples) of 5.00 to 6.00.
Consider `CN1C[C@H](Cc2ccc(Cl)cc2)N(C2CCN(c3nnc(N)[nH]3)CC2)C[C@@H]1Cc1ccc(Cl)cc1` [Example C10, reference compound], for which the pIC50 at hERG channel (Table 2, comparative examples) was > 6.00.
On to `CN1C[C@H](Cc2ccc(Cl)cc2)N(C2CCN(c3nnc(N)[nH]3)CC2)C[C@@H]1CC1CCCCC1` [Example C11, reference compound], for which the pIC50 on hERG channel (Table 2, comparative examples) was > 6.00.
Take `CC(C)C[C@H]1CN(C2CCN(c3nnc(N)[nH]3)CC2)[C@@H](Cc2ccc(Cl)cc2)CN1C` [Example C12, reference compound]: at hERG channel (Table 2, comparative examples), the pIC50 is > 6.00.
For `Nc1nnc(N2CCC(N3C[C@@H](O)C[C@@H]3Cc3ccc(Cl)cc3)CC2)[nH]1` [Example C14, reference compound], the pIC50 at hERG channel (Table 2, comparative examples) is 4.60 to 5.00.
With `Nc1nnc(N2CCC(N3C[C@@H]4CCCN4C[C@@H]3Cc3ccc(Cl)cc3)CC2)[nH]1` [Example C15, reference compound], the pIC50 on hERG channel (Table 2, comparative examples) is 5.00 to 6.00.
Consider `CN1C[C@H](Cc2ccc(Cl)cc2)N(C2CCN(c3nnc(N)[nH]3)CC2)Cc2ccccc21` [Example C17, reference compound], for which the pIC50 at hERG channel (Table 2, comparative examples) was 5.00 to 6.00.
On the same count and under the same terms, next, `CN1C[C@H](Cc2ccc(Cl)cc2)N(C2CCN(c3nnc(N)[nH]3)CC2)Cc2cc(Cl)ccc21` [Example C18, reference compound]: > 6.00.
Still for that read-out and setting: next, `Nc1nnc(N2CCC(N3Cc4cc(Cl)ccc4OC[C@@H]3Cc3ccc(Cl)cc3)CC2)[nH]1` [Example C20, reference compound]: 5.00 to 6.00.
On the same count and under the same terms, next, `Nc1nnc(N2CCC(N3Cc4cc(Cl)cc(Cl)c4OC[C@@H]3Cc3ccc(Cl)cc3)CC2)[nH]1` [Example C21, reference compound]: 5.00 to 6.00.

Values taken from patent US11638707B2, “Substituted amino triazoles useful as chitinase inhibitors” (Molecure S.A., priority 2019, dated 2023).
